Test results: US11725011B2, “Bicyclic urea kinase inhibitors and uses thereof” (The Broad Institute, Inc., priority 2016, dated 2023)

Columns and labels:
[1] = target: SBK1 (Homo sapiens (Human), UniProt Q52WX2); assay: KINOMEscan; type: binding; settings: 1 uM
[2] = target: ABL1 (E255K)-phosphorylated (Homo sapiens (Human), UniProt P00519, E255K); assay: KINOMEscan; type: binding; settings: 1 uM
[3] = target: CDC2L5 (Homo sapiens (Human), UniProt Q14004); settings: 1 uM
[4] = target: ASK2 (Homo sapiens (Human), UniProt O95382); assay: KINOMEscan; type: binding; settings: 1 uM
[5] = target: PIK3CA (E545K) (Homo sapiens (Human), UniProt P42336, E545K); assay: KINOMEscan; type: binding; settings: 1 uM
[6] = target: FGFR3 (G697C) (Homo sapiens (Human), UniProt P22607, G697C); assay: KINOMEscan; type: binding; settings: 1 uM
[7] = target: MAP3K2 (Homo sapiens (Human), UniProt Q9Y2U5); assay: KINOMEscan; type: binding; settings: 1 uM
Chain of MAP3K2 (Q9Y2U5 whole entry): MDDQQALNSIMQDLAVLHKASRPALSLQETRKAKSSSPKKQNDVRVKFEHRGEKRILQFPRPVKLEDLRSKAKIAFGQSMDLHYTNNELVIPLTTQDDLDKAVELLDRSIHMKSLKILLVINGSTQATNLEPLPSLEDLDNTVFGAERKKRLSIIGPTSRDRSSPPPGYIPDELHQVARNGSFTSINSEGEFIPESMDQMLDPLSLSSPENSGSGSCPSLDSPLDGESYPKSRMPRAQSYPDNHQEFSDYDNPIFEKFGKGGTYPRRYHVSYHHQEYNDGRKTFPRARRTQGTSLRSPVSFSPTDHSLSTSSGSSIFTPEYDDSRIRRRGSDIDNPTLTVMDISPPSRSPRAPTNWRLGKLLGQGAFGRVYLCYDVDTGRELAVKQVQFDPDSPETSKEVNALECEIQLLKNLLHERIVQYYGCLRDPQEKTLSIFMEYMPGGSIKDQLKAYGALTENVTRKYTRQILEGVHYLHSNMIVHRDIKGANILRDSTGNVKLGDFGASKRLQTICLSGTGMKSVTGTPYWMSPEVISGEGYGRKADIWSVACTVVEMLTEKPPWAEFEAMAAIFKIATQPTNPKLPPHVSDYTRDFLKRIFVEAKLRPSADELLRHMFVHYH

[8] = target: CSNK2A2 (Homo sapiens (Human), UniProt P19784); assay: KINOMEscan; type: binding; settings: 1 uM
[9] = target: PIK3C2B (Homo sapiens (Human), UniProt O00750); assay: KINOMEscan; type: binding; settings: 1 uM
[10] = target: RSK1 (Kin.Dom.1-N-terminal) (Homo sapiens (Human), UniProt Q15418); assay: KINOMEscan; type: binding; settings: 1 uM
[11] = target: MLK2 (Homo sapiens (Human), UniProt Q02779); assay: KINOMEscan; type: binding; settings: 1 uM
[12] = Viability loss (Table 4); type: cell-based
[13] = target: MUSK (Homo sapiens (Human), UniProt O15146); assay: KINOMEscan; type: binding; settings: 1 uM
Chain of MUSK (O15146 24-869): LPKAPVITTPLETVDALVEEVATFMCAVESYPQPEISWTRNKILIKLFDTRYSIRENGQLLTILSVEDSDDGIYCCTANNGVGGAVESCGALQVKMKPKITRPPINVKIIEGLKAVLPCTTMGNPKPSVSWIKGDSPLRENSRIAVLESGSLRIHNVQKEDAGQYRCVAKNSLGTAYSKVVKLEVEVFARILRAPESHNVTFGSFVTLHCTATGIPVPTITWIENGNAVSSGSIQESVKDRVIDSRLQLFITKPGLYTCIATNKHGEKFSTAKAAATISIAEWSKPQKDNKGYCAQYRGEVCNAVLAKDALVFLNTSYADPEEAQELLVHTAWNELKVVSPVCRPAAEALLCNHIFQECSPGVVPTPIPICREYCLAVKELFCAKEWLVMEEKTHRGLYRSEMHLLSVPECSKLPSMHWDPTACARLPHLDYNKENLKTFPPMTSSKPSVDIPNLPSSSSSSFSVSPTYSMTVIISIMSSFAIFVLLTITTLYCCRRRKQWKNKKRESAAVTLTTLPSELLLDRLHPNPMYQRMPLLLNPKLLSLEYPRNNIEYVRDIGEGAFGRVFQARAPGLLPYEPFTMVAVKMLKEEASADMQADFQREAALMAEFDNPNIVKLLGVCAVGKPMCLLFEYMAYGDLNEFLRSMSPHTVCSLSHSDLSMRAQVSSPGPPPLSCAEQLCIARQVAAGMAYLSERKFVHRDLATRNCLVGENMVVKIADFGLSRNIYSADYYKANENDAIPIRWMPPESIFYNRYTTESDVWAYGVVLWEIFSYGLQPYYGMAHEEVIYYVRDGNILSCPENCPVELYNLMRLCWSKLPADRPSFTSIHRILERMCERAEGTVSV

[14] = target: PRKG1 (Homo sapiens (Human), UniProt Q13976); assay: KINOMEscan; type: binding; settings: 1 uM
[15] = target: LCK (Homo sapiens (Human), UniProt P06239); assay: KINOMEscan; type: binding; settings: 1 uM
[16] = target: EGFR (G719C) (Homo sapiens (Human), UniProt P00533, G719C); assay: KINOMEscan; type: binding; settings: 1 uM
[17] = target: ZAP70 (Homo sapiens (Human), UniProt P43403); assay: KINOMEscan; type: binding; settings: 1 uM
[18] = target: RPS6KA5 (Kin.Dom.2-C-terminal) (Homo sapiens (Human), UniProt O75582); assay: KINOMEscan; type: binding; settings: 1 uM
[19] = target: TNIK (Homo sapiens (Human), UniProt Q9UKE5); assay: KINOMEscan; type: binding; settings: 1 uM
Chain of TNIK (Q9UKE5 whole entry): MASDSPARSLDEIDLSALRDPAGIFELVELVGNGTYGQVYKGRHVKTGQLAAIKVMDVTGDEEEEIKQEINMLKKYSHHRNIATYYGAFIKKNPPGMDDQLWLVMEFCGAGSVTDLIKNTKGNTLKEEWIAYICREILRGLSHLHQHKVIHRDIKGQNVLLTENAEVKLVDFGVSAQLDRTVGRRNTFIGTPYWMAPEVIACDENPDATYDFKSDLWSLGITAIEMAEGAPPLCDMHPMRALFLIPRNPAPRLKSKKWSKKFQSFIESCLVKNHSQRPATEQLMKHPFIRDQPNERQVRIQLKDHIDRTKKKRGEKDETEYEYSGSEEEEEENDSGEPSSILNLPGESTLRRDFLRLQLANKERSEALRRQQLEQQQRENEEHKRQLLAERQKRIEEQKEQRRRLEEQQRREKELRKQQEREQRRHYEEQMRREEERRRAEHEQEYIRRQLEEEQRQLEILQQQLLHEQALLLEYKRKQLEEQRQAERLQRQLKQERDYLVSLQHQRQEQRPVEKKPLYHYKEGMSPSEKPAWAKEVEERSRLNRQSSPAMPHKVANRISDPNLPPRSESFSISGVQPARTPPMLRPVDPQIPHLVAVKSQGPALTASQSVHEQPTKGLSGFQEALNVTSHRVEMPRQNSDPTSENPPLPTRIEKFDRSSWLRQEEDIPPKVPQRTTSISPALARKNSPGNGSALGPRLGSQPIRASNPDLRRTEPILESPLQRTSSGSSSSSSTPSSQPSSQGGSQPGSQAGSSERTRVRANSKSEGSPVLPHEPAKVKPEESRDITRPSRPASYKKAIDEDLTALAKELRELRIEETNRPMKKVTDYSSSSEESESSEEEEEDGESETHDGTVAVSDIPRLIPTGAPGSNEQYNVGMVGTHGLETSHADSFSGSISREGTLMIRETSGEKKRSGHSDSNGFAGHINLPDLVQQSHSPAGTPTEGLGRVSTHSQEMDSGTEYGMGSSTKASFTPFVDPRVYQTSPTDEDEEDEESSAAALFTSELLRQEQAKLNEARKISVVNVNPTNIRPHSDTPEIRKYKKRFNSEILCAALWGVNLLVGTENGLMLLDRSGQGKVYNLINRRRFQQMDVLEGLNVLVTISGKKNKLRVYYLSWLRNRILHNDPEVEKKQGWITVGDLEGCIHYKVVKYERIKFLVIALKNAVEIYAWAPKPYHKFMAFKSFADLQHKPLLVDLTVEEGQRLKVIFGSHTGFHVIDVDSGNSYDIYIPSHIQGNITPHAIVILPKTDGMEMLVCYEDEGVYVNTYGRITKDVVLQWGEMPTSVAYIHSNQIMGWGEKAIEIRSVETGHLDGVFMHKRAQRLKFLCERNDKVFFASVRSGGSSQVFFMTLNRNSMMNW

[20] = target: FGFR1 (Homo sapiens (Human), UniProt P11362); assay: KINOMEscan; type: binding; settings: 1 uM
Chain of FGFR1 (P11362 22-822): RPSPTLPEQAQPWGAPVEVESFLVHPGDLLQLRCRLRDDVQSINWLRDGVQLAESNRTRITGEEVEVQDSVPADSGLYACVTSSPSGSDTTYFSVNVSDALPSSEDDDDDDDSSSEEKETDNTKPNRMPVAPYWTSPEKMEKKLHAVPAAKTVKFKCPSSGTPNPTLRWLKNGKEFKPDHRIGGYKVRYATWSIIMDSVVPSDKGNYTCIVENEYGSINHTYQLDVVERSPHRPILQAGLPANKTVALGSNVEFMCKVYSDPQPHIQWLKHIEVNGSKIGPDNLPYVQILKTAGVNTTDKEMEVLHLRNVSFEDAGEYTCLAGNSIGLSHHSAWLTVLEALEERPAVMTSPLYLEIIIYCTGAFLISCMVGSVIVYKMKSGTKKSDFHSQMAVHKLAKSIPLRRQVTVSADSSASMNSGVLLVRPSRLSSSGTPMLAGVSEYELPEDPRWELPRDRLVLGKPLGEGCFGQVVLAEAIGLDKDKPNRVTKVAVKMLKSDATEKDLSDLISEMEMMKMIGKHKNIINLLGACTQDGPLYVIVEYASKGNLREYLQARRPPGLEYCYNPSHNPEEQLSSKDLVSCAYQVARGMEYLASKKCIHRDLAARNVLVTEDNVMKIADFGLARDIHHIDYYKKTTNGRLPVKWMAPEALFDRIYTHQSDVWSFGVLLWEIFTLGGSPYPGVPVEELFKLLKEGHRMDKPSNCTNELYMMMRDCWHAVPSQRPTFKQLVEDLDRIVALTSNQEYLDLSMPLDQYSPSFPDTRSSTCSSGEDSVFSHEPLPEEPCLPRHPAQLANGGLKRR

[21] = target: EPHB4 (Homo sapiens (Human), UniProt P54760); assay: KINOMEscan; type: binding; settings: 1 uM
[22] = target: p38-delta (Homo sapiens (Human), UniProt O15264); assay: KINOMEscan; type: binding; settings: 1 uM
[23] = target: DAPK2 (Homo sapiens (Human), UniProt Q9UIK4); assay: KINOMEscan; type: binding; settings: 1 uM
[24] = target: RPS6KA5 (Kin.Dom.1-N-terminal) (Homo sapiens (Human), UniProt O75582); assay: KINOMEscan; type: binding; settings: 1 uM
Chain of RPS6KA5 (Kin.Dom.1-N-terminal) (O75582 49-318): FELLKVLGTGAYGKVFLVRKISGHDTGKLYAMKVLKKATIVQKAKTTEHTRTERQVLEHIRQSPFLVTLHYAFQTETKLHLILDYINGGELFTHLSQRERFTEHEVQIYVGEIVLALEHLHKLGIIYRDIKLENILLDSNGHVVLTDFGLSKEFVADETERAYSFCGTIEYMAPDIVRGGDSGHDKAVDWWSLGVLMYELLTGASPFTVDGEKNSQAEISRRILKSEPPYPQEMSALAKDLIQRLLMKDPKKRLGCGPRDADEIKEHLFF

[25] = target: RET (M918T) (Homo sapiens (Human), UniProt P07949, M918T); assay: KINOMEscan; type: binding; settings: 1 uM
Chain of RET (M918T) (P07949 29-1114 M918T): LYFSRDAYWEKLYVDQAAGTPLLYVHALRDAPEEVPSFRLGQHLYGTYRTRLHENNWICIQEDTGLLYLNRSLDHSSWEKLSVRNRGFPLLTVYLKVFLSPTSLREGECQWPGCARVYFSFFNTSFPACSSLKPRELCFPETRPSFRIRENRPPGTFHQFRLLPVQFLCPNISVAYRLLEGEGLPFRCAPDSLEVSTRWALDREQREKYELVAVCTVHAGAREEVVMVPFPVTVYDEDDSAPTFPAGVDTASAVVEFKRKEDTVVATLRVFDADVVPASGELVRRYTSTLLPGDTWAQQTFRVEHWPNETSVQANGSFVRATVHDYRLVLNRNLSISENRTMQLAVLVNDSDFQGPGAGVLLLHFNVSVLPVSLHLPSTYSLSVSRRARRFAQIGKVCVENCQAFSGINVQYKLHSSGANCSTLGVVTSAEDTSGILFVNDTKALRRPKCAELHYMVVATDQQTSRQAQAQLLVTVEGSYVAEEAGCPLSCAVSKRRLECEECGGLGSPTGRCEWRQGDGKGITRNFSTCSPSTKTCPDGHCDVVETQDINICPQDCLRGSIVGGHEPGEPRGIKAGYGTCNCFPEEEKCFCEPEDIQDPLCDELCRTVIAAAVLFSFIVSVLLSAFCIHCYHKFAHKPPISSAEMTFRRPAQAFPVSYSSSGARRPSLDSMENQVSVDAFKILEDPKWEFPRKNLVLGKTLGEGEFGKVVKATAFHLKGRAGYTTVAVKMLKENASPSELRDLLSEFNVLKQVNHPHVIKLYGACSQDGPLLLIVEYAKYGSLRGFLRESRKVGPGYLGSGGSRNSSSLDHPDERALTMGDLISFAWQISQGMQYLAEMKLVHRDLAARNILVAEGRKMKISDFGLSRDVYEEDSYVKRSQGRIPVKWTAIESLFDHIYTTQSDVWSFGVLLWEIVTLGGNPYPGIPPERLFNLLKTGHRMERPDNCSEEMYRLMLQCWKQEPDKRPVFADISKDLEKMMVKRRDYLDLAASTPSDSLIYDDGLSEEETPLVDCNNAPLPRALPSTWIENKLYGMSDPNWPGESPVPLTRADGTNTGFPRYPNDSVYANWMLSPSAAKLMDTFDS

[26] = target: DYRK2 (Homo sapiens (Human), UniProt Q92630); assay: KINOMEscan; type: binding; settings: 1 uM
[27] = target: TIE2 (Homo sapiens (Human), UniProt Q02763); assay: KINOMEscan; type: binding; settings: 1 uM
[28] = target: RPS6KA4 (Kin.Dom.1-N-terminal) (Homo sapiens (Human), UniProt O75676); assay: KINOMEscan; type: binding; settings: 1 uM
[29] = target: DCAMKL2 (Homo sapiens (Human), UniProt Q8N568); assay: KINOMEscan; type: binding; settings: 1 uM
[30] = target: ABL1 (T315I)-phosphorylated (Homo sapiens (Human), UniProt P00519, T315I); assay: KINOMEscan; type: binding; settings: 1 uM
[31] = tested on: FLT3 (ITD); assay: KINOMEscan; type: binding; settings: 1 uM
[32] = target: CSK (Homo sapiens (Human), UniProt P41240); assay: KINOMEscan; type: binding; settings: 1 uM
[33] = target: KIT (V559D) (Homo sapiens (Human), UniProt P10721, V559D); assay: KINOMEscan; type: binding; settings: 1 uM
[34] = target: BMPR1B (Homo sapiens (Human), UniProt O00238); assay: KINOMEscan; type: binding; settings: 1 uM
[35] = target: PLK1 (Homo sapiens (Human), UniProt P53350); assay: KINOMEscan; type: binding; settings: 1 uM
[36] = target: LATS1 (Homo sapiens (Human), UniProt O95835); assay: KINOMEscan; type: binding; settings: 1 uM
[37] = target: ALK (L1196M) (Homo sapiens (Human), UniProt Q9UM73, L1196M); assay: KINOMEscan; type: binding; settings: 1 uM
[38] = target: HCK (Homo sapiens (Human), UniProt P08631); assay: KINOMEscan; type: binding; settings: 1 uM
[39] = target: MST4 (Homo sapiens (Human), UniProt Q9P289); assay: KINOMEscan; type: binding; settings: 1 uM
[40] = target: BRSK2 (Homo sapiens (Human), UniProt Q8IWQ3); assay: KINOMEscan; type: binding; settings: 1 uM

SMILES: COc1ccc(N2C(=O)N(c3c(C)cccc3C)Cc3cnc(Nc4ccc(N5CCN(C)CC5)cc4)nc32)c(OC)c1 [HG-11-136-01]
- KINOMEscan SBK1 [1]: 6.6
- KINOMEscan ABL1 (E255K)-phosphorylated [2]: 0.4
- KINOMEscan CDC2L5 [3]: 65
- KINOMEscan ASK2 [4]: 46
- KINOMEscan PIK3CA (E545K) [5]: 98
- KINOMEscan FGFR3 (G697C) [6]: 1.4
- KINOMEscan MAP3K2 [7]: 0.05
- KINOMEscan CSNK2A2 [8]: 0.05
- KINOMEscan PIK3C2B [9]: 0.55
- KINOMEscan RSK1 (Kin.Dom.1-N-terminal) [10]: 48
- KINOMEscan MLK2 [11]: 11
- Viability loss AC40 [12]: 0.097 µM
- Viability loss data mode [12]: decreasing
- KINOMEscan MUSK [13]: 86
- KINOMEscan PRKG1 [14]: 100
- KINOMEscan LCK [15]: 0.05
- KINOMEscan EGFR (G719C) [16]: 0.1
- KINOMEscan ZAP70 [17]: 25
- KINOMEscan RPS6KA5 (Kin.Dom.2-C-terminal) [18]: 80
- KINOMEscan TNIK [19]: 2.8
- KINOMEscan FGFR1 [20]: 0.15
- KINOMEscan EPHB4 [21]: 0
- KINOMEscan p38-delta [22]: 100
- KINOMEscan DAPK2 [23]: 88
- KINOMEscan RPS6KA5 (Kin.Dom.1-N-terminal) [24]: 100
- KINOMEscan RET (M918T) [25]: 0.05
- KINOMEscan DYRK2 [26]: 5
- KINOMEscan TIE2 [27]: 0.75
- KINOMEscan RPS6KA4 (Kin.Dom.1-N-terminal) [28]: 79
- KINOMEscan DCAMKL2 [29]: 88
- KINOMEscan ABL1 (T315I)-phosphorylated [30]: 1.2
- KINOMEscan FLT3 (ITD) [31]: 57
- KINOMEscan CSK [32]: 0.3
- KINOMEscan KIT (V559D) [33]: 0
- KINOMEscan BMPR1B [34]: 0
- KINOMEscan PLK1 [35]: 60
- KINOMEscan LATS1 [36]: 100
- KINOMEscan ALK (L1196M) [37]: 8.2
- KINOMEscan HCK [38]: 0.05
- KINOMEscan MST4 [39]: 2.8
- KINOMEscan BRSK2 [40]: 91
